The values that follow come from ChEMBL document CHEMBL1147269, “Cribrarione B, a new naphthoquinone pigment from the myxomycete Cribraria cancellata” (J Nat Prod, 2003).

Each structure is given as a SMILES string. Calls of active or inactive are those of the source. No cut-off for these calls is given here.

The assay has as its system Bacillus subtilis. Put plainly: Antimicrobial activity against Bacillus subtilis. Type of assay: functional, organism-based.

As for `CC(O)c1cc(O)c2c(c1O)C(=O)C=C(O)C2=O` (stereo unspecified), the result was inactive.
